Measured values from ChEMBL document CHEMBL1201862, “PubChem BioAssay data set” (2004).
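Growth conditions: 96-well plates. Treatment: test compound, 48 hours, 5 concentrations. Analysis: linear interpolation between bracketing concentrations; unreached endpoints set to highest concentration. GI50 marks 50% less growth.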 Calls of active or inactive are those of the source. Rule as the data show it: active = GI50 up to about 1.1 µM and inactive = higher.

Key:
Assay in all cases: DTP human tumour cell line panel, 48 h
SF-295 = tested on: SF-295
SNB-75 = tested on: SNB-75
NCI-H23 = tested on: NCI-H23
ACHN = tested on: ACHN
OVCAR-4 = tested on: OVCAR-4
OVCAR-8 = tested on: OVCAR-8
UACC-257 = tested on: UACC-257
KM12 = tested on: KM12
TK-10 = tested on: TK-10
NCI-H226 = tested on: NCI-H226
Malme-3M = tested on: Malme-3M
UACC-62 = tested on: UACC-62
A549 = tested on: A549
UO-31 = tested on: UO-31
HCT-15 = tested on: HCT-15
SW-620 = tested on: SW-620

Compound	GI50 (SF-295)	GI50 (SNB-75)	GI50 (NCI-H23)	GI50 (ACHN)	GI50 (OVCAR-4)	GI50 (OVCAR-8)	GI50 (UACC-257)	GI50 (KM12)	GI50 (TK-10)	GI50 (NCI-H226)	GI50 (Malme-3M)	GI50 (UACC-62)	GI50 (A549)	GI50 (UO-31)	GI50 (HCT-15) [µM]	GI50 (SW-620)
CC(=O)c1ccc(-c2ccc(C(C)=O)s2)s1	> 100 µM (inactive)	> 100 µM (inactive)	> 100 µM (inactive)	> 100 µM (inactive)	> 100 µM (inactive)	> 100 µM (inactive)	> 100 µM (inactive)	> 100 µM (inactive)	> 100 µM (inactive)	19 µM (inactive)	> 100 µM (inactive)	> 100 µM (inactive)	> 100 µM (inactive)	> 100 µM (inactive)	> 100	> 100 µM (inactive)
O=S(=O)(N/N=C/c1ccc(Cl)cc1Cl)c1ccccc1	> 100 µM (inactive)	83 µM (inactive)	69.7 µM (inactive)	> 100 µM (inactive)	> 100 µM (inactive)	71.4 µM (inactive)	> 100 µM (inactive)	51.2 µM (inactive)	> 100 µM (inactive)	99.3 µM (inactive)	> 100 µM (inactive)	> 100 µM (inactive)	> 100 µM (inactive)	> 100 µM (inactive)	> 100	78.9 µM (inactive)
Cc1ccc(S(=O)(=O)OC2CS[S+]([O-])CC2OS(=O)(=O)c2ccc(C)cc2)cc1 (centres undefined)	15.7 µM (inactive)	20.6 µM (inactive)	14.7 µM (inactive)	17 µM (inactive)	15.6 µM (inactive)	10.6 µM (inactive)	14.6 µM (inactive)	17.3 µM (inactive)	15.1 µM (inactive)	19.4 µM (inactive)	14.6 µM (inactive)	15.3 µM (inactive)	19 µM (inactive)	18.9 µM (inactive)	19	6.55 µM (inactive)
Fc1ccc(C2SCc3nc4ccccc4n32)cc1Cl (centres undefined)	26.5 µM (inactive)		22.5 µM (inactive)	25.5 µM (inactive)	20 µM (inactive)	21.3 µM (inactive)	22.8 µM (inactive)	16.1 µM (inactive)	27.8 µM (inactive)	23.2 µM (inactive)	7.8 µM (inactive)	10.1 µM (inactive)	25.8 µM (inactive)	16.7 µM (inactive)		36.1 µM (inactive)
CSC(C1c2ccccc2N(c2ccc(C)cc2)C2=NC(=O)N(C)C(=O)C21Cl)S(=O)(=O)c1ccc(C)cc1 (centres undefined)	24.2 µM (inactive)	23 µM (inactive)	22 µM (inactive)	31.4 µM (inactive)	17.9 µM (inactive)	27.8 µM (inactive)	23.7 µM (inactive)		48.6 µM (inactive)	22.2 µM (inactive)	17.2 µM (inactive)	21.6 µM (inactive)	34 µM (inactive)	22.4 µM (inactive)		30.6 µM (inactive)
O=C(O)c1c2c(cc3c(=O)c4ccccc4[nH]c13)CCCC2	68.5 µM (inactive)	> 100 µM (inactive)	> 100 µM (inactive)	> 100 µM (inactive)		> 100 µM (inactive)	> 100 µM (inactive)		> 100 µM (inactive)	> 100 µM (inactive)	> 100 µM (inactive)	76.7 µM (inactive)	> 100 µM (inactive)	> 100 µM (inactive)	62.7	65.2 µM (inactive)
COC(=O)C1=C(O)c2cc(-c3ccccc3)c(-c3ccccc3)c(C#N)c2NC(=O)C1	3.54 µM (inactive)	16.8 µM (inactive)	> 100 µM (inactive)	24 µM (inactive)	27.2 µM (inactive)	4.13 µM (inactive)	91.8 µM (inactive)	7.01 µM (inactive)				3.97 µM (inactive)	3.5 µM (inactive)	1.4 µM (inactive)	1.55	
O=C(N/C(=C\c1ccc(/C=C(\NC(=O)c2ccccc2)c2nc3ccccc3[nH]2)cc1)c1nc2ccccc2[nH]1)c1ccccc1	> 100 µM (inactive)	> 100 µM (inactive)	> 100 µM (inactive)	> 100 µM (inactive)	> 100 µM (inactive)	> 100 µM (inactive)	> 100 µM (inactive)		> 100 µM (inactive)		> 100 µM (inactive)	> 100 µM (inactive)	> 100 µM (inactive)	> 100 µM (inactive)	> 100	> 100 µM (inactive)
N#CC(C(=O)C(=O)C(C#N)c1ccc(Br)cc1)c1ccc(Br)cc1 (centres undefined)	13.6 µM (inactive)	5.13 µM (inactive)	3.91 µM (inactive)	12.6 µM (inactive)	12.3 µM (inactive)		11.9 µM (inactive)	10.6 µM (inactive)	16.8 µM (inactive)	18.1 µM (inactive)	13.6 µM (inactive)	1.51 µM (inactive)	23.3 µM (inactive)	16.3 µM (inactive)	13.3	14.7 µM (inactive)
N/N=C(\CCN1CCCC1)CC(c1ccccc1)c1c(O)c2ccccc2oc1=O (centres undefined)	> 100 µM (inactive)	45.3 µM (inactive)	> 100 µM (inactive)	> 100 µM (inactive)	> 100 µM (inactive)	> 100 µM (inactive)	> 100 µM (inactive)	> 100 µM (inactive)	> 100 µM (inactive)	> 100 µM (inactive)	> 100 µM (inactive)	> 100 µM (inactive)	> 100 µM (inactive)		> 100	> 100 µM (inactive)
NC(=O)c1csc(C2C=CC(CO)O2)n1 (centres undefined)	> 10 µM (inactive)		> 100 µM (inactive)	> 100 µM (inactive)	> 100 µM (inactive)	> 100 µM (inactive)	> 100 µM (inactive)	> 10 µM (inactive)	> 100 µM (inactive)	> 100 µM (inactive)	> 100 µM (inactive)	> 100 µM (inactive)	> 100 µM (inactive)	> 100 µM (inactive)	> 100	> 100 µM (inactive)
COC1CC(n2cc(F)c(N)nc2=O)OC1CO (centres undefined)	> 100 µM (inactive)	> 100 µM (inactive)	> 100 µM (inactive)	> 100 µM (inactive)	> 100 µM (inactive)	> 100 µM (inactive)	> 100 µM (inactive)	> 100 µM (inactive)	> 100 µM (inactive)	> 100 µM (inactive)	> 100 µM (inactive)		> 100 µM (inactive)	> 100 µM (inactive)	> 100	> 100 µM (inactive)
Nc1nc2c(c(=O)[n-]1)[n+](CCO)cn2C1OC(CO)C(O)C1O (centres undefined)	> 100 µM (inactive)	> 100 µM (inactive)		> 100 µM (inactive)	> 100 µM (inactive)	> 100 µM (inactive)	> 100 µM (inactive)	> 100 µM (inactive)	> 100 µM (inactive)	> 100 µM (inactive)	> 100 µM (inactive)	> 100 µM (inactive)	> 100 µM (inactive)	> 100 µM (inactive)	> 100	> 100 µM (inactive)
C/C(CC(=O)Nc1ccccc1)=N\NC(N)=S	> 100 µM (inactive)	> 100 µM (inactive)	> 100 µM (inactive)			> 100 µM (inactive)	> 100 µM (inactive)	> 100 µM (inactive)	> 100 µM (inactive)	> 100 µM (inactive)	> 100 µM (inactive)	> 100 µM (inactive)	> 100 µM (inactive)	> 100 µM (inactive)		> 100 µM (inactive)
